Values of other authors, collected in publication PMC9230797, “Integration of a Physiologically Based Pharmacokinetic and Pharmacodynamic Model for Tegoprazan and Its Metabolite: Application for Predicting Food Effect and Intragastric pH Alterations” (Pharmaceutics, 2022).
Like-named read-outs stand apart in the source and are kept apart here.

Legend:
[1] = cited from earlier work
[2] = parameters: method as in PMID 28378544; conditions: cited from earlier work
[3] = parameters: method as in PMID 19006606; conditions: cited from earlier work

COCCCOc1ccnc(C[S+]([O-])c2nc3ccccc3[nH]2)c1C (stereo not drawn) [rabeprazole]
PK parameters (Tmax, AUC, half-life, Cmax) after a high-fat meal [1]: tended to fluctuate significantly

COc1ccc2[nH]c([S+]([O-])Cc3ncc(C)c(OC)c3C)nc2c1 (stereo not drawn) [omeprazole]
PK parameters (Tmax, AUC, half-life, Cmax) after a high-fat meal [1]: tended to fluctuate significantly
mean AUC0–12 h ([2]; CYP2C19 EM, multiple administrations): 1715 ng·h/mL
mean AUC0–12 h ([2]; CYP2C19 EM, single administration): 713.5 ng·h/mL
mean AUC0–12 h ([2]; CYP2C19 IM, multiple administrations): 2087 ng·h/mL
mean AUC0–12 h ([2]; CYP2C19 IM, single administration): 972.5 ng·h/mL
mean AUC0–12 h ([2]; CYP2C19 PM, multiple administrations): 3669 ng·h/mL
mean AUC0–12 h ([2]; CYP2C19 PM, single administration): 3652 ng·h/mL
AUC0–12 h ratio PM vs EM ([2]; multiple administrations): 2.14 fold
AUC0–12 h ratio PM vs IM ([2]; multiple administrations): 1.76 fold
AUC0–12 h ratio PM vs EM ([2]; single administration): 5.12 fold
AUC0–12 h ratio PM vs IM ([2]; single administration): 3.76 fold

CNCc1cc(-c2ccccc2F)n(S(=O)(=O)c2cccnc2)c1 [vonoprazan]
effect of food intake on PK parameters [1]: not significantly affected

COc1ccnc(C[S+]([O-])c2nc3ccc(OC(F)F)cc3[nH]2)c1OC (stereo not drawn) [pantoprazole]
PK parameters (Tmax, AUC, half-life, Cmax) after a high-fat meal [1]: tended to fluctuate significantly

COc1ccc2[nH]c([S+]([O-])Cc3ncc(C)c(OC)c3C)nc2n1 (stereo not drawn) [tenatoprazole]
plasma half-life [3]: up to 9 h
